# Laboratory results as given in ChEMBL document CHEMBL4823305, “Design, synthesis and antibacterial evaluation of novel 3-O-substituted 15-membered azalides possessing 1,2,3-triazole side chains” (2021).
# Activity calls are given as the source filed them. The calls are words filed in the database; no cut-off is given here.
# Tests used:
# Klebsiella pneumoniae = assay: Antibacterial activity against Klebsiella pneumoniae ATCC10031 by broth microdilution method; format: functional
# Staphylococcus aureus [1] = assay: Antibacterial activity against penicillin-resistant Staphylococcus aureus by broth microdilution method; format: functional
# Enterococcus faecium = assay: Antibacterial activity against clinical isolate erythromycin-resistant Enterococcus faecium by broth microdilution method; format: functional
# Staphylococcus aureus [2] = assay: Antibacterial activity against erythromycin-susceptible Staphylococcus aureus ATCC25923 by broth microdilution method; format: functional
# Staphylococcus aureus [3] = assay: Antibacterial activity against methicillin-resistant Staphylococcus aureus ATCC43300 by broth microdilution method; format: functional
# [4] = Ratio of MBC for bactericidal activity against methicillin-resistant Staphylococcus aureus ATCC43300 to MIC for antibacterial activity against methicillin-resistant Staphylococcus aureus ATCC43300 by broth microdilution method; format: functional
# Staphylococcus aureus [5] = assay: Bactericidal activity against methicillin-resistant Staphylococcus aureus ATCC43300; format: functional
# Bacillus subtilis = assay: Antibacterial activity against penicillin-susceptible Bacillus subtilis ATCC9372 by broth microdilution method; format: functional
# Enterococcus faecalis = assay: Antibacterial activity against vancomycin-susceptible Enterococcus faecalis ATCC29212 by broth microdilution method; format: functional
# Staphylococcus aureus [6] = assay: Antibacterial activity against methicillin-resistant Staphylococcus aureus ATCC43300 at 0.5 times of MIC measured up to 24 hrs by broth microdilution method; format: functional, organism-based; details: time hrs <=24
# Staphylococcus aureus [7] = assay: Bactericidal activity against methicillin-resistant Staphylococcus aureus ATCC43300 at 2 times of MIC measured up to 24 hrs; format: functional, organism-based; details: time hrs <=24
# Staphylococcus aureus [8] = assay: Antibacterial activity against methicillin-resistant Staphylococcus aureus ATCC43300 at 1 times of MIC measured up to 9 hrs by broth microdilution method; format: functional, organism-based; details: time hrs <=9
# Staphylococcus aureus [9] = assay: Bactericidal activity against methicillin-resistant Staphylococcus aureus ATCC43300 at 4 times of MIC measured up to 24 hrs; format: functional, organism-based; details: time hrs <=24
Compound,MIC (Klebsiella pneumoniae),MIC (Staphylococcus aureus [1]),MIC (Enterococcus faecium),MIC (Staphylococcus aureus [2]),MIC (Staphylococcus aureus [3]),Ratio [4],MBC (Staphylococcus aureus [5]),MIC (Bacillus subtilis),MIC (Enterococcus faecalis),inhibition (Staphylococcus aureus [6]),inhibition (Staphylococcus aureus [7]),inhibition (Staphylococcus aureus [8]),inhibition (Staphylococcus aureus [9])
CCCCc1ccc(-c2cn(CC(=O)NNC(=O)O[C@H]3[C@H](C)[C@@H](O[C@@H]4O[C@H](C)C[C@H](N(C)C)[C@H]4O)[C@](C)(O)C[C@@H](C)CN(C)[C@H](C)[C@H]4OC(=O)O[C@]4(C)[C@@H](CC)OC(=O)[C@@H]3C)nn2)cc1,16 mg/L,32 mg/L,16 mg/L,8 mg/L,32 mg/L,>8,> 256 mg/L,8 mg/L,4 mg/L,–,–,–,–
CCCCCc1ccc(-c2cn(CC(=O)NNC(=O)O[C@H]3[C@H](C)[C@@H](O[C@@H]4O[C@H](C)C[C@H](N(C)C)[C@H]4O)[C@](C)(O)C[C@@H](C)CN(C)[C@H](C)[C@H]4OC(=O)O[C@]4(C)[C@@H](CC)OC(=O)[C@@H]3C)nn2)cc1,32 mg/L,16 mg/L,8 mg/L,8 mg/L,16 mg/L,8,126 mg/L,8 mg/L,4 mg/L,inactive,Active,Active,Active
CC[C@H]1OC(=O)[C@H](C)[C@@H](OC(=O)NNC(=O)Cn2cc(-c3ccc(-c4ccccc4)cc3)nn2)[C@H](C)[C@@H](O[C@@H]2O[C@H](C)C[C@H](N(C)C)[C@H]2O)[C@](C)(O)C[C@@H](C)CN(C)[C@H](C)[C@H]2OC(=O)O[C@@]21C,32 mg/L,32 mg/L,16 mg/L,16 mg/L,32 mg/L,>8,> 256 mg/L,16 mg/L,8 mg/L,–,–,–,–
CC[C@H]1OC(=O)[C@H](C)[C@@H](OC(=O)NNC(=O)Cn2cc(-c3ccc(C(C)(C)C)cc3)nn2)[C@H](C)[C@@H](O[C@@H]2O[C@H](C)C[C@H](N(C)C)[C@H]2O)[C@](C)(O)C[C@@H](C)CN(C)[C@H](C)[C@H]2OC(=O)O[C@@]21C,16 mg/L,32 mg/L,16 mg/L,16 mg/L,32 mg/L,>8,> 256 mg/L,16 mg/L,4 mg/L,–,–,–,–
CCOc1ccc(-c2cn(CC(=O)NNC(=O)O[C@H]3[C@H](C)[C@@H](O[C@@H]4O[C@H](C)C[C@H](N(C)C)[C@H]4O)[C@](C)(O)C[C@@H](C)CN(C)[C@H](C)[C@H]4OC(=O)O[C@]4(C)[C@@H](CC)OC(=O)[C@@H]3C)nn2)cc1,32 mg/L,128 mg/L,128 mg/L,32 mg/L,128 mg/L,–,–,64 mg/L,16 mg/L,–,–,–,–
CC[C@H]1OC(=O)[C@H](C)[C@@H](OC(=O)NNC(=O)Cn2cc(-c3ccc(C)cc3)nn2)[C@H](C)[C@@H](O[C@@H]2O[C@H](C)C[C@H](N(C)C)[C@H]2O)[C@](C)(O)C[C@@H](C)CN(C)[C@H](C)[C@H]2OC(=O)O[C@@]21C,16 mg/L,256 mg/L,64 mg/L,32 mg/L,256 mg/L,–,–,64 mg/L,32 mg/L,–,–,–,–
CC[C@H]1OC(=O)[C@H](C)[C@@H](O[C@H]2C[C@@](C)(OC)[C@@H](O)[C@H](C)O2)[C@H](C)[C@@H](O[C@@H]2O[C@H](C)C[C@H](N(C)C)[C@H]2O)[C@](C)(O)C[C@@H](C)CN(C)[C@H](C)[C@@H](O)[C@]1(C)O [AZITHROMYCIN],2 mg/L,> 256 mg/L,256 mg/L,< 0.25 mg/L,> 256 mg/L,–,–,< 0.25 mg/L,4 mg/L,–,–,–,–
